Assay results published in US20040191842A1, “Chemopreventive and therapeutic aspects of polyphenolic compositions and assays” (Medical College of Georgia Research Institute, Inc., priority 2002, published 2004).
Entries after “also recorded” stand apart in the source; their conditions may differ.

How the values were obtained:
OSC-2 and OSC-4 cells [1] = assay: MTT assay, OSC-2 and OSC-4 cells pretreated with catalase, 3-AT or NAC; assay type: cell-based, human
Description: (§1) Succinate dehydrogenase activity assay (MTT assay).

OSC-2 and OSC-4 cells [2] = assay: BrdU incorporation, OSC-2 and OSC-4 cells with exogenous catalase; assay type: cell-based, human; settings: 200 U/ml catalase, 200 μM EGCG, 24 h
Procedure: DNA synthesis assay. DNA synthesis was analyzed by a BrdU cell proliferation assay kit (Oncogene Research Products, Boston, Mass.). […] After the treatment, cells were labeled with BrdU for 2 hours at 37° C. and reacted with anti-BrdU antibody. Unbound antibody in each well was removed by rinsing, and horseradish peroxidase-conjugated goat anti-mouse IgG antibody was added to each well. The color reaction to visualize the secondary antibody was carried out according to the protocol provided by the manufacturer.

caspase-3 = assay: Caspase-3 activity, OSC-2 and OSC-4 cells pretreated with catalase; assay type: cell-based, human; settings: 200 U/ml catalase, 24 hour
Procedure: Caspase-3 activity assay. The caspase-3 apoptosis detection kit (Santa Cruz Biotechnology, Inc., Santa Cruz, Calif.) was used to measure caspase-3 activity. Cells (10^5 cells/well) were plated in triplicate in a 24-well tissue culture plate. […] To each well, 100 μl of 2×reaction buffer was added with 10 mM dithiothreitol. Finally, 5 μl of DEVD-AFC substrate was added to each well containing cell lysates. The reaction mixtures were incubated for 1 hour at 37° C., and caspase-3 activity in each well was measured using a fluorescence microplate reader ([…]luor Plus, Tecan US, Research Triangle Park, N.C.) at a wavelength of 405 nm for excitation and 505 nm for emission.

p57 (KIP2) = assay type: cell-based, human; settings: for p57 expression, carcinogen alone: 0.12 μM BaP or 10 μM NNK alone
Procedure: Cell treatments. For 24 hours treatments, exponentially growing cells with 40% confluency (to minimize differentiation and spontaneous apoptosis) were either maintained in 50 μM EGCG (2.29 mg/100 ml) or 0.2 mg/ml of GTPPs in tissue culture flasks (25 cm^2). Control flasks contained cells without any treatment. To test whether BaP or NNK interfere with the induction of p57, the human keratinocytes were treated with 0.12 μM BaP, or 10 μM NNK, either alone or in combination with 50 μM EGCG. To examine the time course of p57 induction, cells were treated with 50 μM EGCG and harvested for Western analysis at 30 minutes, 2 hours, 6 hours, and 24 hours. The human keratinocytes were treated when the cell density reached 85-90% confluency (to mimic the epithelium).
In a parallel series of experiments, treatment with EGCG was performed with 30 micrograms per milliliter (μg/ml) cycloheximide added to the keratinocyte media 30 minutes prior to the addition of EGCG. The dose-response experiments were performed using EGCG concentrations at 30, 50 100, and 200 μM in the culture media for 24 hours.
Western blot analysis. Cells from different treatment groups were lysed in RIPA buffer (1% NP-40, 1% sodium deoxycholate, 0.1% SDS, 0.15 M NaCl, 0.01 M sodium phosphate, pH 7.2, and 1% Trasylol) containing proteinase inhibitors (1 mM PMSF, 1 μg/ml each of aprotinin, leupeptin, and pepstatin). The concentration of protein in each sample was determined using the BioRad DC Protein Assay and spectrophotometry. Fifty micrograms (μg) of protein from each sample and a BioRad molecular weight standard marker were run on a 10% SDS-PAGE, followed by transfer to nitrocellulose membranes. Nonspecific binding to membranes was blocked with 10% nonfat milk. Specific primary polyclonal (rabbit) antibody against p57 and a horse radish peroxidase-conjugated goat anti-rabbit secondary antibody were used in conjunction with the ECL Chemiluminescence Kit and membranes were exposed to radiographic films for detection.

OSC-2 cells [3] = assay: Intracellular ROS levels (DFDA assay), OSC-2 cells; assay type: cell-based, human; settings: 5 mM diamide or relatively high H2O2, 60 minutes
Procedure: (§2) Measurement of intracellular ROS levels. The ROS assay measures the accumulation of intracellular ROS levels. The non-fluorescent dye DFDA passively diffuses into cells, where the acetates are cleaved by intracellular esterases. […] Thus, values of the fluorescence in the cell cultures are constantly rising in this assay. Cells (1.5×10^4 cells/well) were incubated with Hallam's physiological saline (HPS) containing DFDA (10 μM) in a 96-well microplate for 30 minutes at 37° C. After the incubation, cells were washed three times with HPS and then incubated with HPS containing EGCG (15-200 μM) or diamide (5 mM) for the indicated time periods. The intracellular ROS levels were measured by using a fluorescence plate reader (BIO-TEK FL600, Bio-Tek Instruments, Inc., Winooski, Vt.), at an excitation wavelength of 485 nm and an emission wavelength of 530 nm.
as §2, with “assay (DFDA assay)” for “assay”, “dye dichlorofluorescein diacetate (DFDA)” for “dye DFDA”, “this assay due to the accumulation of ROS.” for “this assay.”, “EGCG (50-200” for “EGCG (15-200”, “indicated times.” for “indicated time periods.”

NHEK [4] = assay: Intracellular ROS levels (DFDA assay), NHEK; assay type: cell-based, human; settings: 5 mM diamide, 1-minute incubation
Procedure: Measurement of intracellular ROS levels. The ROS assay measures the accumulation of intracellular ROS levels. The non-fluorescent dye DFDA passively diffuses into cells, where the acetates are cleaved by intracellular esterases. […] Thus, values of the fluorescence in the cell cultures are constantly rising in this assay. […] The intracellular ROS levels were measured by using a fluorescence plate reader (BIO-TEK FL600, Bio-Tek Instruments, Inc., Winooski, Vt.), at an excitation wavelength of 485 nm and an emission wavelength of 530 nm.

NHEK [5] = assay: MTT assay (SDH activity), NHEK; assay type: cell-based, human
Description: as §1

OSC-4 cells = assay: MTT assay (SDH activity), OSC-4 cells; assay type: cell-based, human
Procedure: MTT [3-(4,5-dimethylthiazol-2-yl)-2,5-diphenyl tetrazolium bromide] assay. This method directly detects the activity of mitochondrial succinate dehydrogenase (SDH). Changes in SDH activity is a measurement of cell viability when stress is introduced in cell culture through chemical or physical means. Cells (1.5×10^4 cells/well) were seeded in a 96-well microplate and treated with the indicated doses of EGCG for 24 hours. After the treatment, the cells in each well were washed with 200 μl of phosphate-buffered saline (PBS), incubated with 100 μl of 2% MTT in a solution of 0.05 M Tris, 0.5 mM MgCl2, 2.5 mM CoCl2, and 0.25 M disodiumn succinate as substrate (Sigma) at 37° C. for 30 minutes. Cells were fixed in situ by the addition of 100 μl of 4% formalin in 0.2 M Tris (pH 7.7), and after a 5 minute incubation at room temperature liquid was removed and the wells were allowed to dry. Each well was rinsed with 200 μl water and cells were solubilized by the addition of 100 μl of 6.35% 0.1 N NaOH in DMSO. The colored formazan product was measured by a Thermo MAX micro plate reader (Molecular Devices Corp., Sunnyvale, Calif.) at a wavelength of 562 nm. Experiments were repeated three times with triplicate samples for each experiment.

OSC-2 cells [6] = assay: MTT assay (mitochondrial SDH activity), OSC2 (OSC-2) cells
Procedure: This method detects the activity of mitochondrial succinate dehydrogenase (SDH). In a 96-well plate, 1.5×10^4 cells were seeded in each well. After variety of treatments, 100 μl of 2% MTT was added to each well and the plate was incubated at 37° C. for 30 minutes. 100 μl of 0.2 M Tris (pH 7.7) with 4% formalin was added to each well. After incubation at room temperature for 5 minutes, liquid was removed and the wells were allowed to dry. Each well was rinsed with 200 μl water followed by addition of 100 μl DMSO (6.35% 0.1 N NaOH in DMSO) to each well. The coloration was measured by a Thermo MAX microplate reader (Molecular Devices Corp. Sunnyvale, Calif. using wavelengths of 562 nm. Experiments were repeated three times with triplicate samples for each experiment.
This method directly detects the activity of mitochondrial succinate dehydrogenase (SDH). Changes in SDH activity is a measurement of cell viability when stress is introduced in cell culture through chemical or physical means. Cells (1.5×10^4 cells/well) were seeded in a 96-well microplate and treated with the indicated doses of EGCG for 24 hours. After the treatment, the cells in each well were washed with 200 μl of phosphate-buffered saline (PBS), incubated with 100 μl of 2% MTT in a solution of 0.05 M Tris, 0.5 mM MgCl2, 2.5 mM CoCl2, and 0.25 M disodiumn succinate as substrate (Sigma) at 37° C. for 30 minutes. Cells were fixed in situ by the addition of 100 μl of 4% formalin in 0.2 M Tris (pH 7.7), and after a 5 minute incubation at room temperature liquid was removed and the wells were allowed to dry. Each well was rinsed with 200 μl water and cells were solubilized by the addition of 100 μl of 6.35% 0.1 N NaOH in DMSO. The colored formazan product was measured by a Thermo MAX micro plate reader (Molecular Devices Corp., Sunnyvale, Calif.) at a wavelength of 562 nm. […]
This method directly detects the activity of mitochondrial succinate dehydrogenase (SDH). […] Solubilized colored formazan product was measured using a Thermo MAX microplate reader (Molecular Devices Corp., Sunnyvale, Calif.) at a wavelength of 562 nm.

Molecule: CC(=O)N[C@@H](CS)C(=O)O [NAC, N-acetyl-L-cysteine]
- effect of NAC on EGCG-induced cytotoxicity (OSC-2 and OSC-4 cells [1]; 10 mM NAC 2 hour pretreatment): failed to rescue both cell lines from EGCG-induced cytotoxicity
- effect of NAC on H2O2 cytotoxicity (OSC-2 and OSC-4 cells [1]; 10 mM NAC 2 hour pretreatment, H2O2 250 and 500 μM): significantly inhibited the cytotoxic effect of H2O2

Molecule: catalase
- effect of exogenous catalase on EGCG-induced SDH reduction in OSC-4 cells (OSC-2 and OSC-4 cells [1]; 200 U/ml catalase, 200 μM EGCG): partially reversed the effects of 200 μM EGCG
- effect of exogenous catalase on EGCG-induced SDH reduction (OSC-2 and OSC-4 cells [1]; 200 U/ml catalase, 200 μM EGCG, 24 h): had no effect on this reduction
- effect of exogenous catalase on BrdU incorporation with EGCG (OSC-2 and OSC-4 cells [2]): had no effect on the rates of BrdU incorporation
- effect of exogenous catalase on EGCG-induced caspase 3 activation (caspase-3): partially inhibited EGCG-induced caspase 3 activation

Molecule: C[C@@H]1C[C@@H]([C@H](O)CC2CC(=O)NC(=O)C2)C(=O)[C@@H](C)C1 [cycloheximide, reference compound]
- p57 protein levels with cycloheximide (p57 (KIP2); 30 μg/ml cycloheximide plus 50 μM EGCG): gradual decline in p57 protein levels

Molecule: CN(C)C(=O)/N=N/C(=O)N(C)C [diamide, reference compound]
- ROS accumulated in OSC-2 cells relative to OSC-4 cells (OSC-2 cells [3]): doubled that in OSC-4 cells; also recorded: approximately two
- intracellular ROS levels vs endogenous (NHEK [4]): induced ROS

Molecule: Nc1nc[nH]n1 [3-AT, 3-amino-1,2,4-triazole]
- susceptibility of NHEK to EGCG cytotoxicity after 3-AT (NHEK [5]; pretreatment with 3-AT): did not become susceptible to EGCG cytotoxicity
- effect of 3-AT on EGCG-induced decline of SDH activity (OSC-2 and OSC-4 cells [1]; 30 μM 3-AT 2 hours, 200 μM EGCG): had no significant effect on the decline of mitochondrial SDH activity

Molecule: OO [H2O2, hydrogen peroxide]
- SDH activity remained (NHEK [5]; 1 mM H2O2, 24 hours): 75%
- reduction of SDH activity (NHEK [5]; 1 mM H2O2, 24 hours): 25%
- SDH activity (OSC-4 cells; 100 μM H2O2): had no significant effect on SDH activity
- H2O2 concentration needed to cause […]% reduction of SDH activity (OSC-4 cells; 24 hours): 250 µM
- ROS accumulated in OSC-2 cells relative to OSC-4 cells (OSC-2 cells [3]): approximately two
- SDH activity (OSC-2 cells [6]; 50 μM H2O2, 24 hour): had no effect on the SDH activity
- H2O2 concentration needed to cause […]% reduction of SDH activity (OSC-2 cells [6]; 24 hours): 250 µM

Molecule: CN(CCCC(=O)c1cccnc1)N=O [NNK, reference compound]
- p57 expression, carcinogen alone (p57 (KIP2)): did not alter p57 expression

Molecule: c1ccc2c(c1)cc1ccc3cccc4ccc2c1c34 [BaP, reference compound]
- p57 expression, carcinogen alone (p57 (KIP2)): did not alter p57 expression
